# In patent publication US20080090814A1, “PYRIDAZINONE COMPOUNDS” (Anadys Pharmaceuticals, Inc., priority 2006, published 2008):
# Molecular target: HCV NS5B polymerase (Hepatitis C virus genotype 1a, UniProt P27958)
# Assay: HCV polymerase inhibition assay (FlashPlate, [α-33P]GTP incorporation)
# Assay type: biochemical
# Settings: 20 nM enzyme, 0.6 μM GTP, 250 nM 5′biotinylated oligo (rG13)/poly rC, 75 min at 28° C.
# Protocol: Compounds were tested for HCV polymerase inhibition. Assays were performed in a 96-well streptavidin-coated FlashPlate using 20 nM enzyme, 0.5 μCi of [α-^33P]GTP, 0.6 μM GTP, and 250 nM 5′biotinylated oligo (rG13)/poly rC in 20 mM Tris-HCl, pH 7.5, 5 mM MgCl2, 5 mM dithiothreitol, 0.1 g/L bovine serum albumin, and 100 U/mL RNAse inhibitor. The reaction was stopped by aspiration after 75 min at 28° C. and the plate was washed several times. After washing and drying the plate, incorporated radioactivity was counted using a Microbeta scintillation counter. IC50 values were calculated relative to the uninhibited control and inhibition data were fitted to a 4-parameter IC50 equation. For very potent inhibitors, the data were fitted to a tight binding quadratic equation to obtain IC50 values.
# Chain of HCV NS5B polymerase (P27958 2421-3011): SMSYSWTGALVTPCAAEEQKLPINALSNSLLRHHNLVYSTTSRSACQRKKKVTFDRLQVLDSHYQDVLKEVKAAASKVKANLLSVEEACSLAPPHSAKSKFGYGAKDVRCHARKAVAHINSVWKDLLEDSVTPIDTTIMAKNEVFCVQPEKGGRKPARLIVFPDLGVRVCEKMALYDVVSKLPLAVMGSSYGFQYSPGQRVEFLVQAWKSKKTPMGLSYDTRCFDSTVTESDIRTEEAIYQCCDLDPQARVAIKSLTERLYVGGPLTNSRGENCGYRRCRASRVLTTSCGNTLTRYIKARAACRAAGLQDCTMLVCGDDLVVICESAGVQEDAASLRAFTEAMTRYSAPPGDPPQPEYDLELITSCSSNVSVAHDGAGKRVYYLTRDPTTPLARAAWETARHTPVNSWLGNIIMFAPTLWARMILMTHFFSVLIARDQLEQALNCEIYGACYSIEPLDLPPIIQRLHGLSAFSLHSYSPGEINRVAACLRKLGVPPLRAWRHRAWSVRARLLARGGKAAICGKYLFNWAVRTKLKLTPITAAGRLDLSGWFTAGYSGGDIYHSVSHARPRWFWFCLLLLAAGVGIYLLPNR
row,Structure (SMILES),IC50
1,"CC(C)CCn1nc(-c2cccs2)c(O)c(C2=CS(=O)(=O)c3ccccc3N2)c1=O [Compound 16, 4-(1,1-Dioxo-1,4-dihydro-1λ^6-benzo[1,4]thiazin-3-yl)-5-hydroxy-2-(3-methyl-butyl)-6-thiophen-2-yl-2H-pyridazin-3-one]",> 1 µM
2,"CCCCc1nn(CCC(C)C)c(=O)c(C2=CS(=O)(=O)c3ccccc3N2)c1O [Compound 25, 6-Butyl-4-(1,1-dioxo-1,4-dihydro-1λ^6-benzo[1,4]thiazin-3-yl)-5-hydroxy-2-(3-methyl-butyl)-2H-pyridazin-3-one]",> 1 µM
3,"CC(C)CCn1nc(-c2cccs2)c(O)c(C2=CS(=O)(=O)c3cc(NS(C)(=O)=O)ccc3N2)c1=O [Compound 29, N-{3-[5-Hydroxy-2-(3-methyl-butyl)-3-oxo-6-thiophen-2-yl-2,3-dihydro-pyridazin-4-yl]-1,1-dioxo-1,4-dihydro-1λ^6-benzo[1,4]thiazin-7-yl}-methanesulfonamide]",< 1 µM
